The values that follow come from patent US20210127673A1, “HERBICIDES” (SYNGENTA PARTICIPATIONS AG, priority 2016, published 2021).

What all share (assay type): in vivo
The test system of assay [1] is Echinochloa crus-galli (ECHCG). As to the kind of experiment: Pre-emergence herbicidal activity, Echinochloa crus-galli. The settings on record: 1000 g/ha, evaluated after 13 days, Test 1b. Also noted: key: 5=total damage to plant; 0=no damage to plant. An outline of the steps:
(§1)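 Damage is rated on a 0–5 scale (0 = no damage, 5 = total damage) 13 days after treatment. Pots of sown seed are sprayed one day after sowing with an aqueous solution from acetone/water (50:50) with 0.5% Tween 20, then kept under controlled glasshouse conditions.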

Assay [2] deals with Lolium perenne (LOLPE). As to the kind of experiment: Pre-emergence herbicidal activity, Lolium perenne. The settings on record: 1000 g/ha, evaluated after 13 days, Test 1b. An outline of the steps: as §1
Assay [3] has as its system Zea Mays (ZEAMX). As to the kind of experiment: Pre-emergence herbicidal activity, Zea Mays. Also noted: key: 5=total damage to plant; 0=no damage to plant. The settings on record: 1000 g/ha, evaluated after 13 days, Test 1b. The protocol: (§2) Seeds of a variety of test species were sown in standard soil in pots: Triticum aestivium (TRZAW), Avena fatua (AVEFA), Alopecurus myosuroides (ALOMY), Echinochloa crus-galli (ECHCG), Lolium perenne (LOLPE), Zea Mays (ZEAMX), Abutilon theophrasti (ABUTH), Amaranthus retroflexus (AMARE) and Setaria faberi (SETFA). After cultivation for one day (pre-emergence) under controlled conditions in a glasshouse (at 24/16° C., day/night; 14 hours light; 65% humidity), the plants were sprayed with an aqueous spray solution derived from the formulation of the technical active ingredient in acetone/water (50:50) solution containing 0.5% Tween 20 (polyoxyethelyene sorbitan monolaurate, CAS RN 9005-64-5). The test plants were then grown in a glasshouse under controlled conditions (at 24/16°, day/night; 14 hours light; 65% humidity) and watered twice daily. After 13 days, the test was evaluated (5=total damage to plant; 0=no damage to plant).

Assay [4] deals with Abutilon theophrasti (ABUTH). As to the kind of experiment: Pre-emergence herbicidal activity, Abutilon theophrasti. Set-up: key: 5=total damage to plant; 0=no damage to plant. Conditions: 1000 g/ha, evaluated after 13 days, Test 1b. The protocol: as §2
Assay [5] deals with Amaranthus retroflexus (AMARE). As to the kind of experiment: Pre-emergence herbicidal activity, Amaranthus retroflexus. Set-up: key: 5=total damage to plant; 0=no damage to plant. The settings on record: 1000 g/ha, evaluated after 13 days, Test 1b. The protocol:
as §2

For assay [6], the system named is Setaria faberi (SETFA). As to the kind of experiment: Pre-emergence herbicidal activity, Setaria faberi. Set-up: key: 5=total damage to plant; 0=no damage to plant. The settings on record: 1000 g/ha, evaluated after 13 days, Test 1b. The gist of the method: as §1
The subject of assay [7] is Echinochloa crus-galli (ECHCG). As to the kind of experiment: Post-emergence herbicidal activity, Echinochloa crus-galli. The settings on record: 1000 g/ha, evaluated after 13 days, Test 2b. An outline of the steps: (§3)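 Post-em, 8 d plants, pots; acetone:water 1:1 + 0.5% Tween 20 spray; 24/16 °C, 14 h photoperiod, 65% RH; 13 d readout, 0–5 phytotoxicity scale.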
Assay [8] relates to Lolium perenne (LOLPE). As to the kind of experiment: Post-emergence herbicidal activity, Lolium perenne. The settings on record: 1000 g/ha, evaluated after 13 days, Test 2b. The gist of the method:
as §3

For assay [9], the system named is Zea Mays (ZEAMX). As to the kind of experiment: Post-emergence herbicidal activity, Zea Mays. Set-up: key: 5=total damage to plant; 0=no damage to plant. The settings on record: 1000 g/ha, evaluated after 13 days, Test 2b. The protocol: (§4) Seeds of a variety of test species were sown in standard soil in pots: Triticum aestivium (TRZAW), Avena fatua (AVEFA), Alopecurus myosuroides (ALOMY), Echinochloa crus-galli (ECHCG), Lolium perenne (LOLPE), Zea Mays (ZEAMX), Abutilon theophrasti (ABUTH), Amaranthus retroflexus (AMARE) and Setaria faberi (SETFA). After 8 days cultivation (post-emergence) under controlled conditions in a glasshouse (at 24/16° C., day/night; 14 hours light; 65% humidity), the plants were sprayed with an aqueous spray solution derived from the formulation of the technical active ingredient in acetone/water (50:50) solution containing 0.5% Tween 20 (polyoxyethelyene sorbitan monolaurate, CAS RN 9005-64-5). The test plants were then grown in a glasshouse under controlled conditions (at 24/16° C., day/night; 14 hours light; 65% humidity) and watered twice daily. After 13 days, the test was evaluated (5=total damage to plant; 0=no damage to plant).

The subject of assay [10] is Abutilon theophrasti (ABUTH). As to the kind of experiment: Post-emergence herbicidal activity, Abutilon theophrasti. Also noted: key: 5=total damage to plant; 0=no damage to plant. Conditions: 1000 g/ha, evaluated after 13 days, Test 2b. The procedure: as §4
Assay [11] relates to Amaranthus retroflexus (AMARE). As to the kind of experiment: Post-emergence herbicidal activity, Amaranthus retroflexus. Set-up: key: 5=total damage to plant; 0=no damage to plant. Conditions: 1000 g/ha, evaluated after 13 days, Test 2b. The procedure:
as §4

The test system of assay [12] is Setaria faberi (SETFA). As to the kind of experiment: Post-emergence herbicidal activity, Setaria faberi. Set-up: key: 5=total damage to plant; 0=no damage to plant. The settings on record: 1000 g/ha, evaluated after 13 days, Test 2b. The gist of the method:
as §3

For `Cc1nc(-c2cncc(OC(F)F)c2)ccc1NC(=O)OC(C)(C)C` [Compound B13], the results for the “ECHCG damage score (0-5)” value in assay [1] and in assay [7] were 2 and 3, respectively. Further, the “LOLPE damage score (0-5)” value in the assay with Lolium perenne (LOLPE) [2] worked out at 1; in the assay with Lolium perenne (LOLPE) [8], 2. The “ZEAMX damage score (0-5)” value in the assay on Zea Mays (ZEAMX) [3] amounted to 2; with Zea Mays (ZEAMX) [9], 5. For the same molecule, the “ABUTH damage score (0-5)” value in [4] and in assay [10] was 0 throughout. Further, the “AMARE damage score (0-5)” value was determined as 0 in assay [5] and 1 in assay [11]. The results for the “SETFA damage score (0-5)” value in the assay on Setaria faberi (SETFA) [6] and with Setaria faberi (SETFA) [12] were 3 and 5, respectively.

As for `Cc1nc(-c2cncc(F)c2)ccc1NC(=O)OC(C)(C)C` [Compound B19], the “ECHCG damage score (0-5)” value in assay [1] and in [7] was 4 throughout. Moreover, the “LOLPE damage score (0-5)” value in the assay on Lolium perenne (LOLPE) [2] was found to be 3; in the assay on Lolium perenne (LOLPE) [8], 4. Also, the “ZEAMX damage score (0-5)” value in the assay on Zea Mays (ZEAMX) [3] and in the assay on Zea Mays (ZEAMX) [9] was 5 each time. For the same molecule, the “ABUTH damage score (0-5)” value in assay [4] and in assay [10] was 1 each time. Further, the “AMARE damage score (0-5)” value in assay [5] amounted to 1; in assay [11] it was 2. The figures for the “SETFA damage score (0-5)” value with Setaria faberi (SETFA) [6] and in the assay on Setaria faberi (SETFA) [12] were 4 and 5, respectively.

As to `CC(C)(C)OC(=O)Nc1ccc(-c2cncnc2)nc1C(F)(F)F` [Compound B32, tert-butyl N-[6-pyrimidin-5-yl-2-(trifluoromethyl)-3-pyridyl]carbamate], the “ECHCG damage score (0-5)” value came out at 3 in assay [1] and 4 in assay [7]. The entries for the “LOLPE damage score (0-5)” value in the assay with Lolium perenne (LOLPE) [2] and with Lolium perenne (LOLPE) [8] were 1 and 2, respectively. In addition, the “ZEAMX damage score (0-5)” value with Zea Mays (ZEAMX) [3] and in the assay with Zea Mays (ZEAMX) [9] was 5 each time. The “ABUTH damage score (0-5)” value in [4] and in assay [10] was 0 in each case. Moreover, the “AMARE damage score (0-5)” value in assay [5] and in [11] was 0 throughout. Moreover, the “SETFA damage score (0-5)” value in the assay with Setaria faberi (SETFA) [6] and with Setaria faberi (SETFA) [12] was 5 throughout.

As for `Cc1nc(-c2cncc(C#N)c2)ccc1NC(=O)OC(C)(C)C` [Compound B20], the “ECHCG damage score (0-5)” value in [1] stood at 5; in assay [7] it was 4. The “LOLPE damage score (0-5)” value came to 1 with Lolium perenne (LOLPE) [2] and 3 in the assay on Lolium perenne (LOLPE) [8]. In addition, the results for the “ZEAMX damage score (0-5)” value in the assay on Zea Mays (ZEAMX) [3] and in the assay with Zea Mays (ZEAMX) [9] were 5 and 4, respectively. Also, the “ABUTH damage score (0-5)” value in assay [4] and in [10] was 0 in each case. Besides, the “AMARE damage score (0-5)” value in assay [5] and in [11] was 1 throughout. The figures for the “SETFA damage score (0-5)” value in the assay on Setaria faberi (SETFA) [6] and in the assay on Setaria faberi (SETFA) [12] were 4 and 5, respectively.

Turning to `CN(C(=O)OC(C)(C)C)c1ccc(-c2cncnc2)nc1C(F)(F)F` [Compound B31], the “ECHCG damage score (0-5)” value stood at 3 in assay [1] and 4 in assay [7]. Further, the “LOLPE damage score (0-5)” value is reported as 1 in the assay with Lolium perenne (LOLPE) [2] and 2 in the assay on Lolium perenne (LOLPE) [8]. Further, the “ZEAMX damage score (0-5)” value in the assay with Zea Mays (ZEAMX) [3] is on record as 4; with Zea Mays (ZEAMX) [9] it was 5. The “ABUTH damage score (0-5)” value is reported as 0 in assay [4] and 1 in assay [10]. Further, the “AMARE damage score (0-5)” value in assay [5] and in [11] was 1 each time. The “SETFA damage score (0-5)” value with Setaria faberi (SETFA) [6] and with Setaria faberi (SETFA) [12] was 5 throughout.
